# Measurements: US11331364B2, “Use for JNK inhibitor molecules for treatment of various diseases” (Xigen Inflammation Ltd., priority 2014, dated 2022)
# Square brackets hold non-standard residues; d marks the D form. Peptide text beside a SMILES is read from it.
# How the values were obtained:
# healthy male volunteers = experiment: Phase I safety and tolerability of single and repeated instillations; type: in vivo, human
# Protocol: XG-104 was prepared as solution for instillations (in NaCl 0.9%). NaCl 0.9% served as placebo. A total of 49 subjects were included in this study, 28 in the “Single dose part” of this study and 21 in the “Multiple dose part” of this study. In the single dose part, the 28 subjects included were randomised between one of the 5 groups: 5 subjects in each of the 4 XG-104 groups (0.1 mg, 0.2 mg, 0.4 mg, 0.8 mg) (0.2, 0.4, 0.8 and 1.6%, respectively) and 8 subjects in the placebo group. In the multiple dose part, the 21 subjects included were randomised between one of the 4 groups: 5 subjects in each of the 3 XG-104 groups (0.1 mg, 0.2 mg, 0.4 mg) and 6 subjects in the placebo group. All subjects completed the study.
# In the “Single dose part” of this study, single topical doses of 0.1, 0.2, 0.4 and 0.8 mg (0.2, 0.4, 0.8 and 1.6%, respectively) of XG-104 were tested. A single administration of XG-104 or placebo was performed on day 1 (D1) (one drop in the right eye). In the single dose part, subjects were hospitalized for approximately 36 h, namely from day −1 (D−1) evening to D2 morning. On day 3 an ambulatory visit was performed and the study ended with a visit at D4.
# In the “Multiple dose part” of this study, three dose levels were tested. Doses were chosen according to the results of the single dose part as follows: first group: 0.1 mg (0.2%), second group: 0.2 mg (0.4%), and third group: 0.4 mg (0.8%). XG-104 or placebo was administered tid (“ter in die”—three times daily), each time 1 drop in the right eye, from D1 to D21. The administration took place at around 8 a.m., 12 a.m. and 8 p.m. In the multiple dose part, subjects were hospitalized from D−1 evening to D22 morning, whereby the end of the study was a visit at D36 (±2). For more flexibility, subjects had the possibility to perform some visits in ambulatory. In that case visits were the following: hospitalization for approximately 36 h, D−1 evening to D2 morning, ambulatory visits from D2 to D7, hospitalization for approximately 36 h, D7 evening to D9 morning, ambulatory visits from D9 to D14, hospitalization for approximately 36 h, D14 evening to D16 morning, ambulatory visits from D16 to D20, and hospitalization for approximately 36 h, D20 evening to D22 morning. The end of the study was a visit at D36 (±2), accordingly.
# The safety parameters evaluated included: physical examination; vital signs (BP, PR); 12-lead ECG (electrocardiogram); fundus of the eye, intraocular pressure, slit lamp examination, best-corrected visual acuity, redness; Schirmer's tear test, TBUT (tear film break-up time); clinical laboratory tests (haematology, haemostasis, clinical chemistry and urinalysis); adverse events; and assessment of tolerability.
# PKR−/− neurons = experiment: Neuronal apoptosis after Aβ42 stress in PKR−/− primary cortical neurons; type: cell-based, mouse
# Protocol: To obtain primary cortical neuronal cultures, E15.5 mice embryos were dissected in PBS (Phosphate Buffered Saline) 6% glucose, on ice. Embryos cortices were minced into small pieces and treated with PBS glucose trypsin (Sigma Aldrich, Saint-Louis, USA) for 20 min at 37° C. Dissociated cortical cells were cultured in Neurobasal media complemented with B27, Glutamax and penicillin-streptomycin (Gibco). Neurons were cultured at 37° C., 5% CO2 on pre-coated with poly-L-lysin (Sigma Aldrich) petri dishes. Neurons were cultured to maturity (7 days) before use.
# To induce […] stress 2 μM of Aβ1-42 (Thermo Fisher Scientific, Mass., USA) were used during 5 h on cortical neurons. Aβ42-1 inversed peptide (Thermo Fisher Scientific) was used as negative control. AP 1-42 and Aβ42-1 were dissolved in pure water and incubated at 37° C. for 48 h before use.
# To inhibit JNK, cortical neurons were pre-treated with 10 μM of XG-104 1 h before cell-stress treatment.
# For immunoblot analysis cells were lysed on ice in a lysis buffer containing […] NaPi pH 7.8, […] NaCl, 1% Triton, 0.5% DOC, 0.1% SDS, 10% glycerol, 0.1 μM calyculin A, 1 mM Na3VO4 and 1× of a protease inhibitor cocktail (Sigma Aldrich). Lysates were sonicated and centrifugated 10 min at 15000 g at 4° C. The supernatant protein concentration was determined with the Micro BCA protein assay kit (Thermo Scientific). Thirty micrograms of proteins were resolved on SDS-PAGE and transferred onto nitrocellulose membrane. After blocking with TBS 5% skim milk, the membranes were probed with primary antibodies to JNK full, c-Jun, PKR, eIF2α (Santa Cruz, Danvers, USA), pJNK (Millipore, Billerica, USA), phosphor eIF2a (Thermo Fisher Scientific), PARP and tubulin (Cell Signaling, Danvers, USA). IR Dyes 800 and 700 (Rockland Immunochemical Inc, Gilbertsville, USA) antibodies were used as secondary antibodies. Blots were reveled with Odyssey imaging system (LI-COR Biosciences, Lincoln, USA).
# For caspase 3 activity analysis culture cell supernatants containing degenerating and dead neurons, and cell medium were collected in parallel of adhesive neurons lysis. Culture cell supernatants were centrifugated 10 min at 15000 g at 4° C. Pellets were then resuspended in lysis buffer and caspase 3 activity was measured by using the Caspase 3 Assay kit reagents and protocol (Abcam, Cambridge, UK).
# [1] = multiple dose 0.1 mg (0.2%) tid
# [2] = multiple dose 0.2 mg (0.4%) tid
# [3] = multiple dose 0.4 mg (0.8%) tid
# [4] = PKR−/− neurons, 10 μM, vs Aβ42 treated PKR−/− neurons
# [5] = dual inhibition of PKR and JNK, vs treated WT neurons
smiles,measurement,setting,value
"CC(C)C[C@H](NC(=O)[C@H](CC(N)=O)NC(=O)[C@H](CC(C)C)NC(=O)[C@@H](NC(=O)[C@@H](C)NC(=O)[C@@H]1CCCN1C(=O)[C@H](CCCNC(=N)N)NC(=O)[C@@H](CCCCN)NC(=O)[C@@H]1CCCN1C(=O)[C@H](CCCNC(=N)N)NC(=O)[C@@H](CCCNC(=N)N)NC(=O)[C@H](CCCNC(=N)N)NC(=O)[C@H](CCCNC(=N)N)NC(=O)[C@H](CCC(N)=O)NC(=O)[C@@H](CCCNC(=N)N)NC(=O)[C@H](CCCNC(=N)N)NC(=O)[C@H](CCCCN)NC(=O)[C@H](CCCCN)NC(=O)[C@H](N)CCCNC(=N)N)[C@@H](C)O)C(=O)N[C@H](Cc1ccccc1)C(N)=O [SEQ ID NO: 172, rKKRrQRRrRPkRPaTLNLf] (H-[dR]KKR[dR]QRR[dR]RP[dK]RP[dA]TLNL[dF]-NH2; N-terminus assumed)","conjunctival hyperaemia, left eye, unlikely related (number)",healthy male volunteers; [1],2
same,"conjunctival hyperaemia, right eye, unlikely related (number)",healthy male volunteers; [1],6
same,"conjunctivas, right eye, probably related (number)",healthy male volunteers; [1],2
same,"punctate keratitis, left eye, unlikely related (number)",healthy male volunteers; [1],2
same,"punctate keratitis, left eye, unrelated (number)",healthy male volunteers; [1],1
same,"punctate keratitis, right eye, unlikely related (number)",healthy male volunteers; [1],6
same,"conjunctival hyperaemia, left eye, unlikely related (number)",healthy male volunteers; [2],3
same,"conjunctival hyperaemia, right eye, unlikely related (number)",healthy male volunteers; [2],5
same,"eyelid irritation, right eye, probably related (number)",healthy male volunteers; [2],1
same,"punctate keratitis, left eye, unlikely related (number)",healthy male volunteers; [2],1
same,"punctate keratitis, left eye, unrelated (number)",healthy male volunteers; [2],4
same,"punctate keratitis, right eye, unlikely related (number)",healthy male volunteers; [2],6
same,"punctate keratitis, right eye, unrelated (number)",healthy male volunteers; [2],1
same,"conjunctival hyperaemia, left eye, unlikely related (number)",healthy male volunteers; [3],2
same,"conjunctival hyperaemia, right eye, unlikely related (number)",healthy male volunteers; [3],10
same,"conjunctivitis, right eye, unlikely related (number)",healthy male volunteers; [3],1
same,"punctate keratitis, left eye, unlikely related (number)",healthy male volunteers; [3],2
same,"punctate keratitis, right eye, unlikely related (number)",healthy male volunteers; [3],5
same,"clinical examination, biological parameters, vital signs or ECG parameters",healthy male volunteers; multiple dose part,No clinically relevant findings
same,intensity of TEAEs,healthy male volunteers; multiple dose part,mild to moderate
same,serious adverse events,healthy male volunteers; multiple dose part,No serious adverse events
same,TEAEs experienced after XG-104 administration (number),"healthy male volunteers; multiple dose part, tid D1 to D21, 0.1-0.4 mg",61
same,tolerability,"healthy male volunteers; repeated dose t.i.d. 0.1 mg, 0.2 mg, 0.4 mg",well tolerated
same,"eye pruritus, right eye, unrelated (number)",healthy male volunteers; single dose 0.1 mg (0.2%),1
same,"punctate keratitis, right eye, unrelated (number)",healthy male volunteers; single dose 0.1 mg (0.2%),2
same,tolerability,"healthy male volunteers; single dose 0.1 mg, 0.2 mg, 0.4 mg",well tolerated
same,"conjunctival hyperaemia, right eye, unrelated (number)",healthy male volunteers; single dose 0.2 mg (0.4%),1
same,"punctate keratitis, right eye, unrelated (number)",healthy male volunteers; single dose 0.2 mg (0.4%),2
same,"punctate keratitis, right eye, unrelated (number)",healthy male volunteers; single dose 0.4 mg (0.8%),2
same,TEAEs right eye probably related to study drug (number),healthy male volunteers; single dose 0.8 mg (1.6%),3
same,"conjunctival hyperaemia, right eye, probably related (number)",healthy male volunteers; single dose 0.8 mg (1.6%),1
same,"conjunctivitis, right eye, probably related (number)",healthy male volunteers; single dose 0.8 mg (1.6%),2
same,"punctate keratitis, right eye, unrelated (number)",healthy male volunteers; single dose 0.8 mg (1.6%),1
same,tolerability,healthy male volunteers; single dose 0.8 mg (1.6%),rather well tolerated
same,"clinical examination, vital signs or ECG parameters",healthy male volunteers; single dose part,No clinically relevant findings
same,intensity of TEAEs,healthy male volunteers; single dose part,mild
same,serious adverse events,healthy male volunteers; single dose part,No serious adverse events
same,TEAEs experienced after XG-104 administration (number),"healthy male volunteers; single dose part, 0.1-0.8 mg, one drop right eye",21
same,decrease of caspase 3 activity,PKR−/− neurons; [4],61%
same,decrease of cleaved PARP expression level,PKR−/− neurons; [4],86%
same,decrease of cleaved caspase 3 expression level,PKR−/− neurons; [4],42%
same,decrease of PARP expression levels,PKR−/− neurons; [5],93%
same,decrease of caspase 3 activity,PKR−/− neurons; [5],87%
same,decrease of cleaved caspase 3,PKR−/− neurons; [5],83%
